63 compounds from patent US20240262806A1, “INHIBITORS OF NLRP3” (PTC THERAPEUTICS, INC., priority 2021, published 2024) can be followed below.

One assay concerns NLRP3 inflammasome. In words: IL-1β Secretion Assay (NLRP3-dependent IL-1β secretion in PMA-differentiated THP-1 cells, nigericin activation, HTRF). The class given is cell-based. The settings on record: Homo sapiens, THP-1, THP-1 cells, 100 ng/mL PMA 24 h, compound 20 h, 2.5 μM Nigericin 3 h; read-out: IC50 IL-1β Inhibition. A digest of the protocol:
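PMA-differentiated THP-1 cells in RPMI with 5% FBS were treated with compounds at 7 concentrations in threefold DMSO dilutions. NLRP3 was activated with nigericin and secreted IL-1β measured by HTRF. IC50 from a logistic fit of percent inhibition versus concentration.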
(TR-FRET usually uses a lanthanide donor and a delayed reading to cut background.)
In the case of `Oc1cc(Br)ccc1-c1nnc(N[C@@H]2CCCNC2)n2cccc12` [Compound I-490, (R)-5-Bromo-2-(4-(piperidin-3-ylamino)pyrrolo[1,2-d][1,2,4]triazin-1-yl) phenol], the half-inhibitory concentration (IC50) fell in the range of 1 to 10 nM.
On the same count and under the same terms, the same measure for `CCN1C[C@H](F)C[C@@H](Nc2nnc(-c3c(O)cc(C)cc3F)c3cccn23)C1` [Compound I-571]: < 1 nM; for `OCCN1CCC[C@@H](Nc2nnc(-c3ccc(Br)cc3O)c3cncn23)C1` [Compound I-623]: < 1 nM; for `CN1CCC[C@@H](Nc2nnc(-c3ccc(C(F)(F)F)cc3O)c3occc23)C1` [Compound I-85]: 10 to 100 nM.
For `CN1C[C@H](O)C[C@@H](Nc2nnc(-c3c(O)cc(C4CC4)cc3F)c3cccn23)C1` [Compound I-387, (3R,5R)-5-[[1-(4-Cyclopropyl-2-fluoro-6-hydroxy-phenyl)pyrrolo[1,2-d][1,2,4]triazin-4-yl]amino]-1-methyl-piperidin-3-ol], the 50% inhibitory concentration (IC50) fell in the range of 10 to 100 nM.
Consider `C[C@H](O)CNc1nnc(-c2c(O)cc(Cl)cc2F)c2cccn12` [Compound I-577], for which the 50% inhibitory concentration (IC50) lay within 10 to 100 nM.
Same read-out and setting: the result for `CN1CCC[C@H]1CNc1nnc(-c2ccc(C(F)(F)F)cc2O)c2ccccc12` [Compound I-87] reads 1 to 10 nM; that for `CN1CCC[C@@H](Nc2nnc(-c3ccc(Br)cc3O)c3ccnn23)C1` [Compound I-452], 1 to 10 nM; that for `FC(F)Oc1cc(C(F)(F)F)ccc1-c1nnc(N[C@@H]2CCCNC2)c2cnccc12` [Compound I-311], 1 to 10 nM.
As for `COc1cc(O)c(-c2nnc(N[C@H]3C[C@@](C)(O)C3)n3cccc23)c(F)c1` [Compound I-562], the half-maximal inhibitory concentration (IC50) was 1 to 10 nM.
On the same count and under the same terms, the result for `O=C(c1ccc(-c2nnc(N[C@@H]3CCCNC3)c3ccccc23)c(O)c1)C(F)(F)F` [Compound I-220] reads 100 to 300 nM.
For the compound `CN1CCC[C@@H](Nc2nnc(-c3ccc(Cl)cc3OCC(F)(F)F)c3cccn23)C1` [Compound I-485, (R)-1-(4-Chloro-2-(2,2,2-trifluoroethoxy)phenyl)-N-(1-methylpiperidin-3-yl)pyrrolo[1,2-d][1,2,4]triazin-4-amine], the half-maximal inhibitory concentration (IC50) lay within 10 to 100 nM.
In the case of `Cc1ccc(-c2nnc(N[C@@H]3CCCN(C)C3)n3cccc23)c(O)c1` [Compound I-337], the IC50 lay within 1 to 10 nM.
Take `Cc1cc(O)c(-c2nnc(N[C@@H]3CCCN(C)C3)c3cnccc23)c(F)c1` [Compound I-179]: the IC50 was < 1 nM.
The same measure, in the same setting: the result for `COc1cc(C)cc(O)c1-c1nnc(N[C@@H]2CCCN(C)C2)c2cnccc12` [Compound I-267] reads 1 to 10 nM.
Still for that read-out and setting: the result for `COc1cc(O)c(-c2nnc(N[C@@H]3C[C@@H](F)CN(C)C3)n3cccc23)c(F)c1` [Compound I-502] reads < 1 nM; that for `CN1CCC[C@@H](Nc2nnc(-c3ccc(C(F)(F)F)cc3O)c3cc(C4CC4)nn23)C1` [Compound I-345], 1 to 10 nM; that for `O=C(O)CN1CCC[C@@H](Nc2nnc(-c3ccc(C(F)(F)F)cc3O)c3ccccc23)C1` [Compound I-98, (R)-2-(3-((4-(2-Hydroxy-4-(trifluoromethyl)phenyl)phthalazin-1-yl)amino)piperidin-1-yl)acetic acid], < 1 nM.
On the same count and under the same terms, the result for `Oc1cc(C(F)(F)F)cc(F)c1-c1nnc(N[C@@H]2CCCN(C3CCOC3)C2)n2cccc12` (stereo partly drawn) [Compound I-447] reads 1 to 10 nM.
Consider `Cc1cc(O)c(-c2nnc(N[C@@H]3CCCN(CCOC(F)F)C3)n3cccc23)c(F)c1` [Compound I-344], for which the IC50 is < 1 nM.
The same measure, in the same setting: the result for `C[C@]1(O)C[C@@H](Nc2nnc(-c3ccc(C(F)(F)F)cc3OC(F)F)c3cccn23)C1` [Compound I-537] reads 1 to 10 nM; that for `OCCN1CCC[C@@H](Nc2nnc(-c3ccc(Cl)cc3O)c3cncn23)C1` [Compound I-436], 1 to 10 nM; that for `FC(F)(F)c1ccc(-c2nnc(N[C@@H]3CCCN(C4CCOC4)C3)n3cccc23)c(C(F)(F)F)c1` (stereo partly drawn) [Compound I-517], 1 to 10 nM.
On the same count and under the same terms, the result for `Cc1cccc(-c2nnc(N[C@@H]3CCCN(C)C3)c3ccccc23)c1O` [Compound I-27] reads < 1 nM; that for `CN1CCC[C@@H](Nc2nnc(-c3ccc(C(F)(F)F)cc3C(F)(F)F)c3ccncc23)C1` [Compound I-177], 1 to 10 nM; that for `CC(C)(O)CNc1nnc(-c2c(O)cc(C3CC3)cc2F)c2cccn12` [Compound I-540], 10 to 100 nM.
On the same count and under the same terms, the same measure for `CCN1CCC[C@@H](Nc2nnc(-c3ccc(C(F)(F)F)cc3OC(F)F)c3c(F)ccn23)C1` [Compound I-566]: 1 to 10 nM; for `CN1CCC[C@@H](Nc2nnc(-c3ccc(Cl)cc3O)c3c2CCC3)C1` [Compound I-314]: 1 to 10 nM; for `CN1CCC[C@@H](Nc2nnc(-c3ccc(C(F)(F)F)cc3O)c3c2CCC3(C)C)C1` [Compound I-46]: 10 to 100 nM.
Consider `CN(C)CC1CCN(c2nnc(-c3ccc(C(F)(F)F)cc3O)c3ccccc23)C1` (stereo not drawn) [Compound I-203], for which the IC50 is 10 to 100 nM.
With `Cc1cc(F)c(-c2nnc(N[C@@H]3CCCN(CC(C)(C)O)C3)n3cccc23)c(OC(F)F)c1` [Compound I-476], the concentration for half-maximal inhibition (IC50) was 100 to 300 nM.
`COc1ccc(-c2nnc(N[C@@H]3CCCN(C)C3)c3c2CCC3)c(C(F)(F)F)c1` [Compound I-258]: the half-inhibitory concentration (IC50) lay in the range of 10 to 100 nM.
The same measure, in the same setting: the result for `C[C@@H]1COCCN1CCNc1nnc(-c2ccc(C(F)(F)F)cc2O)c2ccccc12` [Compound I-147] reads 10 to 100 nM.
On the same count and under the same terms, the same measure for `[2H]C([2H])([2H])Oc1cc(O)c(-c2nnc(N[C@@H]3CCCN(C)C3)n3cccc23)c(F)c1` [Compound I-513]: < 1 nM; for `CC(C)(O)CN1CCC[C@@H](Nc2nnc(-c3ccc(C(F)(F)F)cc3O)c3cccn23)C1` [Compound I-364]: 1 to 10 nM; for `CN1CCC[C@@H](Nc2nnc(-c3ccccc3O)c3ccccc23)C1` [Compound I-33]: 1 to 10 nM.
On the same count and under the same terms, the same measure for `Cc1ccc(-c2nnc(N[C@@H]3CCCN(C)C3)c3ccccc23)c(F)c1F` [Compound I-165]: 10 to 100 nM.
Take `CCN1CCC[C@@H](Nc2nnc(-c3ccc(Br)cc3O)c3cncn23)C1` [Compound I-628]: the 50% inhibitory concentration (IC50) was < 1 nM.
As for `OCCN1CCC[C@@H](Nc2nnc(-c3c(O)cc(Cl)cc3F)c3ccncc23)C1` [Compound I-282, 5-Chloro-3-fluoro-2-[4-[[(3R)-1-(2-hydroxyethyl)-3-piperidyl]amino]pyrido[3,4-d]-pyridazin-1-yl]phenol], the 50% inhibitory concentration (IC50) is < 1 nM.
With `Oc1cc(C(F)(F)F)ccc1-c1nnc(N[C@@H]2CCCCNC2)c2cnccc12` [Compound I-261], the IC50 lay within 1 to 10 nM.
Regarding `CN1C[C@@H](F)C[C@H](Nc2nnc(-c3ccc(C(F)(F)F)cc3O)c3ccccc23)C1` [Compound I-164], the IC50 lay in the range of 10 to 100 nM.
Same read-out and setting: the result for `CN1C[C@H](F)C[C@@H](Nc2nnc(-c3c(O)cc(C(F)(F)F)cc3F)c3cccn23)C1` [Compound I-416] reads 1 to 10 nM.
Take `Cc1ccc(-c2nnc(N[C@@H]3CCCN(C)C3)c3cnccc23)c(C)c1` [Compound I-216]: the IC50 is 1 to 10 nM.
With `Cc1ccc(-c2nnc(N[C@@H]3CCCN(C)C3)c3cnccc23)c(C(F)(F)F)c1` [Compound I-298], the IC50 is 1 to 10 nM.
The same measure, in the same setting: the same measure for `CN1CCC[C@@H](Nc2nnc(-c3c(F)cc(C(F)(F)F)cc3OC(F)F)c3cccn23)C1` [Compound I-487]: 1 to 10 nM; for `CN1CCC[C@H](Nc2nnc(-c3c(O)cccc3Cl)c3ccncc23)C1` [Compound I-139]: 1 to 10 nM; for `COc1ccc(-c2nnc(N[C@@H]3CCCN(C)C3)c3cnccc23)c(C)c1` [Compound I-254]: 1 to 10 nM.
The same measure, in the same setting: the same measure for `C[C@]1(O)C[C@@H](Nc2nnc(-c3c(O)cc(OC(F)F)cc3F)c3cccn23)C1` [Compound I-618]: 10 to 100 nM; for `Oc1cc(C(F)(F)F)ccc1-c1nnc(N[C@@H]2CC[C@@H](O)C2)n2cccc12` [Compound I-449]: 10 to 100 nM; for `Oc1cc(C(F)(F)F)ccc1-c1nnc(N[C@@H]2CCCN(CC(F)F)C2)c2cnccc12` [Compound I-277]: < 1 nM.
As to `CN1CCC[C@@H](Nc2nnc(-c3ccc(C(F)(F)F)cc3N)c3ccccc23)C1` [Compound I-123], the IC50 fell in the range of 1 to 10 nM.
On to `CN1CCC[C@@H](Nc2nnc(-c3ccc(Cl)cc3O)c3ccncc23)C1` [Compound I-60], for which the half-inhibitory concentration (IC50) is < 1 nM.
On the same count and under the same terms, the same measure for `Oc1cc(C(F)(F)F)ccc1-c1nnc(N[C@@H]2CCCOC2)n2cncc12` [Compound I-397]: 10 to 100 nM; for `CN1CCC[C@@H](Nc2nnc(-c3ccc(Cl)cc3F)c3ccncc23)C1` [Compound I-129]: < 1 nM; for `CCOc1cc(O)c(-c2nnc(N[C@@H]3C[C@@H](F)CN(C)C3)n3cccc23)c(F)c1` [Compound I-631]: 10 to 100 nM.
For `CCN1CCC[C@@H](Nc2nnc(-c3c(C)cc(C)cc3O)c3cccn23)C1` [Compound I-636], the 50% inhibitory concentration (IC50) is < 1 nM.
Same read-out and setting: the result for `Oc1cc(Cl)ccc1-c1nnc(N[C@@H]2CCCN(CC(F)F)C2)n2cccc12` [Compound I-368] reads 10 to 100 nM.
Regarding `CN1CCC[C@@H](Nc2nnc(-c3ccc(C(F)(F)F)cc3O)c3ccncc23)C1` [Compound I-7], the IC50 is < 1 nM.
With `CN1CCC[C@@H](Nc2nnc(-c3ccc(C4CC4)cc3C(F)F)c3ccncc23)C1` [Compound I-248], the 50% inhibitory concentration (IC50) was 1 to 10 nM.
On the same count and under the same terms, the same measure for `OCCN1CCC[C@@H](Nc2nnc(-c3c(O)cc(Cl)cc3F)c3cccn23)C1` [Compound I-482]: 1 to 10 nM; for `Oc1cc(Cl)ccc1-c1nnc(N[C@@H]2CCCN(CC(F)F)C2)n2cncc12` [Compound I-559]: 1 to 10 nM.
For `Oc1cc(C(F)(F)F)ccc1-c1nnc(NC[C@@H]2CCCN2)c2ccccc12` [Compound I-68], the half-inhibitory concentration (IC50) was < 1 nM.

Staying with this assay, now noted: THP-1 cells, 100 ng/mL PMA 24 h, compound 20 h, 2.5 μM Nigericin 3 h; read-out: IC50 IL-1β Inhibition.
Consider `CN1CCC[C@@H](Nc2nnc(-c3c(F)ccc(Cl)c3O)c3ccncc23)C1` [Compound I-211], for which the IC50 lay in the range of 10 to 100 nM.

The IC50 is the concentration that inhibits the measured activity by half.
